From patent publication US20130330749A1, “METHOD AND APPARATUS FOR DETECTING LIVER DISEASE, AND METHOD FOR ASSAYING PHARMACEUTICAL PREPARATION” (priority 2008, published 2013)

What was measured:
[1] = target: T1, γ-glutamyl cysteine synthase (GCS) (Mus musculus, UniProt P97494); assay: Administration of GCS inhibitor BSO and GCS activator DEM to mice; metabolites in liver and serum measured by CE-TOFMS; format: in vivo; details: intraperitoneal 4 mmol/kg
T1 construct: Liver specimens (about 300 mg) were excised from the mice 1 hour after administration; from tissue; host or cells: mouse liver (in vivo, intraperitoneal dosing); serum also measured
T1 sequence (P97494 1-637): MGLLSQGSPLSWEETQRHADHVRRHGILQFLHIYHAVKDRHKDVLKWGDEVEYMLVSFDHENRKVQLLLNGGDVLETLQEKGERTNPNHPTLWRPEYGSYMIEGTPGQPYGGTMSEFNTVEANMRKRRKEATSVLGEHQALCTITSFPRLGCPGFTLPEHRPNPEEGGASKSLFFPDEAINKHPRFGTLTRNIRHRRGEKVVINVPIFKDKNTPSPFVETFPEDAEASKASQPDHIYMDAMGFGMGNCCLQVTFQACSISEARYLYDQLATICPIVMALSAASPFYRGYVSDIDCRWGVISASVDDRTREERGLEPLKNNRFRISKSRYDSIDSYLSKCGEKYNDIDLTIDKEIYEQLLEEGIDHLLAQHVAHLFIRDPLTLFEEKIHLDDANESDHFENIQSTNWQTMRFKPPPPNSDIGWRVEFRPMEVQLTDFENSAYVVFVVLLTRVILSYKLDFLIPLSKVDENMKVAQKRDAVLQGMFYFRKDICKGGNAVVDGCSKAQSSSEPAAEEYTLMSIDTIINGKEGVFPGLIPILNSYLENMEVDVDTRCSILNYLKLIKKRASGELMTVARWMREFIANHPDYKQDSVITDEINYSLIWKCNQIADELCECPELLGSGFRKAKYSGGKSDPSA
T1 sequence (O09172 1-274 partner): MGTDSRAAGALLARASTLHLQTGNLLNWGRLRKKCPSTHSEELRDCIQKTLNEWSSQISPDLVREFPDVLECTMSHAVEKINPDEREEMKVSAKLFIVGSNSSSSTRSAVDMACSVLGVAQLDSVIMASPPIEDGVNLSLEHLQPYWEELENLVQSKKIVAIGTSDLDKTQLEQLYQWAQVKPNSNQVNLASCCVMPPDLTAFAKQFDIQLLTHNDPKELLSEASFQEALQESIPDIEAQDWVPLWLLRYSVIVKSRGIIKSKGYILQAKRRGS
Excerpt: The biosynthesis mechanism of γ-Glu-X peptides was elucidated using a mouse. As shown in FIG. 1(B), the following biosynthesis mechanism of γ-Glu-X peptides was found. That is, the oxidative stress condition caused by active oxygen and electrophiles causes depletion of glutathione, which is used for removing these substances, and this depletion leads to activation of γ-glutamyl cysteine synthase (GCS). Then, γ-Glu-X dipeptides and γ-Glu-X-Gly tripeptides are biosynthesized by using various amino acids as substrates (starting materials). The experimental procedures are described below.
Male mice were fasted overnight and anesthetized by an intraperitoneal injection of pentobarbital sodium (60 mg/Kg of body weight). Then, the mice were intraperitoneally injected with BSO, which is a γ-glutamyl cysteine synthase (GCS) inhibitor, and diethylmaleate (DEM), which is an electrophile (GCS activator), both at a dose of 4 mmol/kg of body weight (888 mg of BSO, 688 mg of DEM). The mouse as a healthy subject was intraperitoneally injected with physiological saline. Liver specimens (about 300 mg) were excised from the mice 1 hour after administration (5 times each).
The liver specimens (about 300 mg) excised from the mice were immediately placed in 1 ml of methanol containing an internal standard substance and were homogenized to inactivate an enzyme, thereby stopping enhancement of metabolism. After 500 μl of pure water was added to the mixture, 300 μl of solution was taken out. To this solution, 200 μl of chloroform was added. After thorough stirring, the solution was further centrifuged at 15000 rpm for 15 minutes at 4° C. After allowing to stand, 300 μl of separated water-methanol phase was passed through a 5 kDa molecular weight cutoff filter for centrifugal ultrafiltration to deproteinize it. The filtrate was lyophilized and 50 μl of Milli-Q water was added thereto. The mixture was subjected to a CE-TOFMS measurement.
The method described below was used to confirm that the detected γ-Glu-X peptides and γ-Glu-X-Gly peptides were synthesized in a glutathione-biosynthesis pathway. […]

glutathione = details: mouse, large quantities of APAP, cited from earlier work

| Structure (SMILES) | amount of glutathione in the livers ([1]; liver 1 hour after administration, compared to the healthy (saline) mouse) | γ-Glu-X and γ-Glu-X-Gly peptidic substances in the liver other than γ-Glu-Cys, GSH and γ-Glu-Ser-Gly ([1]; liver 1 hour after administration, compared to the healthy subject) | γ-Glu-2AB and ophthalmic acid (γ-Glu-2AB-Gly) in the murine serum ([1]; serum, compared to the normal state) | ophthalmic acid level (glutathione; in inverse proportion to the glutathione level) | glutathione level (glutathione) |
| --- | --- | --- | --- | --- | --- |
| CCCCS(=N)(=O)CCC(N)C(=O)O (centres unmarked) [BSO] | decreased rapidly | decreased | decreased |  |  |
| CC(=O)Nc1ccc(O)cc1 [APAP, Acetaminophen] |  |  |  | increased rapidly | decreased |
